Measured values as given in PMC9386913 (Arthritis Research & Therapy, 2022).
Marks after values point to notes of the source that are not given here.

Test: Phase I multiple ascending-dose study: safety and tolerability (treatment-emergent adverse events)
Type: in vivo, human (healthy volunteers)
Procedure: A single-center, randomized, double-blind, placebo-controlled phase I study (NCT03554993) with a MAD component was performed in the UK between May 2018 and July 2019. Thirty-seven healthy volunteers of any race, ethnicity, or sex were enrolled. The inclusion criteria were 18 to 55 years of age inclusive, body mass index 18 to 33 kg/m^2, and physical examination by the investigator without clinically significant findings. Subjects were excluded if any clinically significant medical history, laboratory abnormality, psychiatric illness, or other condition existed that would place the subject at unacceptable risk by participating in the study. Pregnancy prevention guidance was provided as per Clinical Trial Facilitation Group recommendations. Subjects were randomly assigned to daily oral doses of CC-99677 or placebo. Subjects were dosed daily for 14 days. […] Both the investigator and subjects were blinded to the treatment arm. Safety assessments, including physical examinations, clinical laboratory tests, and collection of adverse events (AEs) were performed and graded using MedDRA version 22.0 and the US Food and Drug Administration (FDA) Toxicity Grading Scale for Healthy Adult and Adolescent Volunteers. The primary outcome of this trial was the safety and tolerability of multiple daily doses of CC-99677.

## CCOCc1cnc(Cl)nc1Oc1ccc2c(ccc3sc4c(c32)NC[C@@H](C)NC4=O)n1 [CC-99677]
10 mg daily, 14 days (n = 5)
  Subjects with ≥ 1 treatment-emergent AE: 3 (60.0) n (%)
  TEAE: Abdominal pain: 0 n (%)
  TEAE: Alanine aminotransferase increased: 0 n (%)
  TEAE: Aspartate aminotransferase increased: 0 n (%)
  TEAE: Back pain: 0 n (%)
  TEAE: Blood creatine phosphokinase increased: 0 n (%)
  TEAE: Catheter site related reaction: 0 n (%)
  TEAE: Chapped lips: 0 n (%)
  TEAE: Constipation: 0 n (%)
  TEAE: Diarrhea: 0 n (%)
  TEAE: Dizziness: 1 (20.0) n (%)
  TEAE: Dysmenorrhea: 0 n (%)
  TEAE: Dyspepsia: 1 (20.0) n (%)
  TEAE: Ear and labyrinth disorders: 1 (20.0) n (%)
  TEAE: Ear pain: 1 (20.0) n (%)
  TEAE: Flushing: 0 n (%)
  TEAE: Gastrointestinal disorders: 2 (40.0) n (%)
  TEAE: General disorders and administration site conditions: 2 (40.0) n (%)
  TEAE: Headache: 2 (40.0) n (%)
  TEAE: Hot flush: 0 n (%)
  TEAE: Infections and infestations: 1 (20.0) n (%)
  TEAE: Injury, poisoning, and procedural complications: 1 (20.0) n (%)
  TEAE: Insomnia: 1 (20.0) n (%)
  TEAE: Investigations: 0 n (%)
  TEAE: Muscle strain: 1 (20.0) n (%)
  TEAE: Musculoskeletal and connective tissue disorders: 0 n (%)
  TEAE: Musculoskeletal pain: 0 n (%)
  TEAE: Myalgia: 0 n (%)
  TEAE: Nasopharyngitis: 0 n (%)
  TEAE: Nausea: 2 (40.0) n (%)
  TEAE: Nervous system disorders: 2 (40.0) n (%)
  TEAE: Oropharyngeal pain: 1 (20.0) n (%)
  TEAE: Psychiatric disorders: 1 (20.0) n (%)
  TEAE: Rash pustular: 1 (20.0) n (%)
  TEAE: Rectal hemorrhage: 0 n (%)
  TEAE: Reproductive system and breast disorders: 0 n (%)
  TEAE: Respiratory, thoracic, and mediastinal disorders: 1 (20.0) n (%)
  TEAE: Sensation of foreign body: 1 (20.0) n (%)
  TEAE: Vascular disorders: 0 n (%)
  TEAE: Vessel puncture site pain: 1 (20.0) n (%)
  TEAE: Vessel puncture site reaction: 0 n (%)
30 mg daily, 14 days (n = 6)
  Subjects with ≥ 1 treatment-emergent AE: 4 (66.7) n (%)
  TEAE: Abdominal pain: 0 n (%)
  TEAE: Alanine aminotransferase increased: 0 n (%)
  TEAE: Aspartate aminotransferase increased: 0 n (%)
  TEAE: Back pain: 0 n (%)
  TEAE: Blood creatine phosphokinase increased: 0 n (%)
  TEAE: Catheter site related reaction: 0 n (%)
  TEAE: Chapped lips: 1 (16.7) n (%)
  TEAE: Constipation: 0 n (%)
  TEAE: Diarrhea: 0 n (%)
  TEAE: Dizziness: 1 (16.7) n (%)
  TEAE: Dysmenorrhea: 0 n (%)
  TEAE: Dyspepsia: 0 n (%)
  TEAE: Ear and labyrinth disorders: 0 n (%)
  TEAE: Ear pain: 0 n (%)
  TEAE: Flushing: 0 n (%)
  TEAE: Gastrointestinal disorders: 2 (33.3) n (%)
  TEAE: General disorders and administration site conditions: 0 n (%)
  TEAE: Headache: 0 n (%)
  TEAE: Hot flush: 0 n (%)
  TEAE: Infections and infestations: 1 (16.7) n (%)
  TEAE: Injury, poisoning, and procedural complications: 0 n (%)
  TEAE: Insomnia: 0 n (%)
  TEAE: Investigations: 0 n (%)
  TEAE: Muscle strain: 0 n (%)
  TEAE: Musculoskeletal and connective tissue disorders: 2 (33.3) n (%)
  TEAE: Musculoskeletal pain: 0 n (%)
  TEAE: Myalgia: 2 (33.3) n (%)
  TEAE: Nasopharyngitis: 1 (16.7) n (%)
  TEAE: Nausea: 0 n (%)
  TEAE: Nervous system disorders: 1 (16.7) n (%)
  TEAE: Oropharyngeal pain: 0 n (%)
  TEAE: Psychiatric disorders: 0 n (%)
  TEAE: Rash pustular: 0 n (%)
  TEAE: Rectal hemorrhage: 1 (16.7) n (%)
  TEAE: Reproductive system and breast disorders: 0 n (%)
  TEAE: Respiratory, thoracic, and mediastinal disorders: 0 n (%)
  TEAE: Sensation of foreign body: 0 n (%)
  TEAE: Vascular disorders: 0 n (%)
  TEAE: Vessel puncture site pain: 0 n (%)
  TEAE: Vessel puncture site reaction: 0 n (%)
60 mg daily, 14 days (n = 6)
  Subjects with ≥ 1 treatment-emergent AE: 1 (16.7) n (%)
  TEAE: Abdominal pain: 0 n (%)
  TEAE: Alanine aminotransferase increased: 0 n (%)
  TEAE: Aspartate aminotransferase increased: 0 n (%)
  TEAE: Back pain: 0 n (%)
  TEAE: Blood creatine phosphokinase increased: 0 n (%)
  TEAE: Catheter site related reaction: 0 n (%)
  TEAE: Chapped lips: 0 n (%)
  TEAE: Constipation: 0 n (%)
  TEAE: Diarrhea: 0 n (%)
  TEAE: Dizziness: 0 n (%)
  TEAE: Dysmenorrhea: 0 n (%)
  TEAE: Dyspepsia: 0 n (%)
  TEAE: Ear and labyrinth disorders: 0 n (%)
  TEAE: Ear pain: 0 n (%)
  TEAE: Flushing: 0 n (%)
  TEAE: Gastrointestinal disorders: 0 n (%)
  TEAE: General disorders and administration site conditions: 0 n (%)
  TEAE: Headache: 1 (16.7) n (%)
  TEAE: Hot flush: 0 n (%)
  TEAE: Infections and infestations: 0 n (%)
  TEAE: Injury, poisoning, and procedural complications: 0 n (%)
  TEAE: Insomnia: 0 n (%)
  TEAE: Investigations: 0 n (%)
  TEAE: Muscle strain: 0 n (%)
  TEAE: Musculoskeletal and connective tissue disorders: 0 n (%)
  TEAE: Musculoskeletal pain: 0 n (%)
  TEAE: Myalgia: 0 n (%)
  TEAE: Nasopharyngitis: 0 n (%)
  TEAE: Nausea: 0 n (%)
  TEAE: Nervous system disorders: 1 (16.7) n (%)
  TEAE: Oropharyngeal pain: 0 n (%)
  TEAE: Psychiatric disorders: 0 n (%)
  TEAE: Rash pustular: 0 n (%)
  TEAE: Rectal hemorrhage: 0 n (%)
  TEAE: Reproductive system and breast disorders: 0 n (%)
  TEAE: Respiratory, thoracic, and mediastinal disorders: 0 n (%)
  TEAE: Sensation of foreign body: 0 n (%)
  TEAE: Vascular disorders: 0 n (%)
  TEAE: Vessel puncture site pain: 0 n (%)
  TEAE: Vessel puncture site reaction: 0 n (%)
120 mg daily, 14 days (n = 6)
  Subjects with ≥ 1 treatment-emergent AE: 3 (50.0) n (%)
  TEAE: Abdominal pain: 1 (16.7) n (%)
  TEAE: Alanine aminotransferase increased: 1 (16.7) n (%)
  TEAE: Aspartate aminotransferase increased: 0 n (%)
  TEAE: Back pain: 0 n (%)
  TEAE: Blood creatine phosphokinase increased: 0 n (%)
  TEAE: Catheter site related reaction: 0 n (%)
  TEAE: Chapped lips: 0 n (%)
  TEAE: Constipation: 0 n (%)
  TEAE: Diarrhea: 1 (16.7) n (%)
  TEAE: Dizziness: 0 n (%)
  TEAE: Dysmenorrhea: 0 n (%)
  TEAE: Dyspepsia: 0 n (%)
  TEAE: Ear and labyrinth disorders: 0 n (%)
  TEAE: Ear pain: 0 n (%)
  TEAE: Flushing: 0 n (%)
  TEAE: Gastrointestinal disorders: 1 (16.7) n (%)
  TEAE: General disorders and administration site conditions: 0 n (%)
  TEAE: Headache: 1 (16.7) n (%)
  TEAE: Hot flush: 0 n (%)
  TEAE: Infections and infestations: 0 n (%)
  TEAE: Injury, poisoning, and procedural complications: 0 n (%)
  TEAE: Insomnia: 0 n (%)
  TEAE: Investigations: 1 (16.7) n (%)
  TEAE: Muscle strain: 0 n (%)
  TEAE: Musculoskeletal and connective tissue disorders: 1 (16.7) n (%)
  TEAE: Musculoskeletal pain: 1 (16.7) n (%)
  TEAE: Myalgia: 0 n (%)
  TEAE: Nasopharyngitis: 0 n (%)
  TEAE: Nausea: 0 n (%)
  TEAE: Nervous system disorders: 1 (16.7) n (%)
  TEAE: Oropharyngeal pain: 1 (16.7) n (%)
  TEAE: Psychiatric disorders: 0 n (%)
  TEAE: Rash pustular: 0 n (%)
  TEAE: Rectal hemorrhage: 0 n (%)
  TEAE: Reproductive system and breast disorders: 0 n (%)
  TEAE: Respiratory, thoracic, and mediastinal disorders: 1 (16.7) n (%)
  TEAE: Sensation of foreign body: 0 n (%)
  TEAE: Vascular disorders: 0 n (%)
  TEAE: Vessel puncture site pain: 0 n (%)
  TEAE: Vessel puncture site reaction: 0 n (%)
150 mg daily, 14 days (n = 5)
  Subjects with ≥ 1 treatment-emergent AE: 2 (40.0) n (%)
  TEAE: Abdominal pain: 0 n (%)
  TEAE: Alanine aminotransferase increased: 0 n (%)
  TEAE: Back pain: 0 n (%)
  TEAE: Catheter site related reaction: 0 n (%)
  TEAE: Chapped lips: 0 n (%)
  TEAE: Constipation: 0 n (%)
  TEAE: Diarrhea: 0 n (%)
  TEAE: Dizziness: 0 n (%)
  TEAE: Dysmenorrhea: 1 (20.0) n (%)
  TEAE: Dyspepsia: 0 n (%)
  TEAE: Ear and labyrinth disorders: 0 n (%)
  TEAE: Ear pain: 0 n (%)
  TEAE: Flushing: 1 (20.0) n (%)
  TEAE: Gastrointestinal disorders: 0 n (%)
  TEAE: General disorders and administration site conditions: 0 n (%)
  TEAE: Headache: 0 n (%)
  TEAE: Hot flush: 0 n (%)
  TEAE: Infections and infestations: 0 n (%)
  TEAE: Injury, poisoning, and procedural complications: 0 n (%)
  TEAE: Insomnia: 0 n (%)
  TEAE: Investigations: 1 (20.0) n (%)
  TEAE: Muscle strain: 0 n (%)
  TEAE: Musculoskeletal and connective tissue disorders: 0 n (%)
  TEAE: Musculoskeletal pain: 0 n (%)
  TEAE: Myalgia: 0 n (%)
  TEAE: Nasopharyngitis: 0 n (%)
  TEAE: Nausea: 0 n (%)
  TEAE: Nervous system disorders: 0 n (%)
  TEAE: Oropharyngeal pain: 0 n (%)
  TEAE: Psychiatric disorders: 0 n (%)
  TEAE: Rash pustular: 0 n (%)
  TEAE: Rectal hemorrhage: 0 n (%)
  TEAE: Reproductive system and breast disorders: 1 (20.0) n (%)
  TEAE: Respiratory, thoracic, and mediastinal disorders: 0 n (%)
  TEAE: Sensation of foreign body: 0 n (%)
  TEAE: Vascular disorders: 1 (20.0) n (%)
  TEAE: Vessel puncture site pain: 0 n (%)
  TEAE: Vessel puncture site reaction: 0 n (%)
150 mg daily, 14 days (n = 5), occurred 14 days after the end of dosing following greater-than-usual physical activity, same individual as AST increase
  TEAE: Blood creatine phosphokinase increased: 1 (20.0)^a n (%)
150 mg daily, 14 days (n = 5), occurred 14 days after the end of dosing following greater-than-usual physical activity, same individual as CPK increase
  TEAE: Aspartate aminotransferase increased: 1 (20.0)^a n (%)
10 to 150 mg
  Dose dependency of the incidence of TEAEs: no apparent CC-99677 dose dependency
14 consecutive days of dosing, 5 dose-level cohorts 10 to 150 mg
  Serious treatment-emergent adverse events: no serious treatment-emergent adverse events (TEAEs) were observed
MAD study
  AEs not suspected to be related to CC-99677 (blinded investigator assessment): 69%
  Discontinuation because of safety reasons: No subject discontinued
MAD study, 10 to 150 mg daily, 14 days
  Severity grade of TEAEs (FDA toxicity grading scale): mild (grade 1)
All subjects receiving CC-99677 (n = 28), placebo 77.8%
  Subjects with TEAEs: 46.4%
